Experimental data reported in US20140242609A1, “Diagnosis and treatment of kidney stones, methods and compositions therefor” (Washington University, priority 2013, published 2014).

Experiments:
[1] = tested on: CLDN14 mRNA; assay: CLDN14 mRNA levels in primary cultures / freshly isolated mouse TALH cells (real-time PCR); assay type: cell-based; settings: 0.01 μM; versus vehicle
Experimental: (§1) An immunomagnetic separation method was used to isolate the TAL cells from the mouse kidney (Hou et al., 2009). Antibodies against the TAL cell specific surface antigen, Tamm-Horsfall protein (THP), were coated onto the paramagnetic polystyrene beads (Dynabeads M-280; Dynal), allowing immunoprecipitation of the TAL cells from collagenase digested mouse kidneys. The isolated cells were plated in DMEM medium supplemented with 10% FBS, penicillin/streptomycin, and 1 mM sodium pyruvate for 16 hours, followed by immediate transfection with NFAT or antagomirs.
(§2) Total RNA including microRNA was extracted using Trizol (Invitrogen). Cellular mRNA was reverse transcribed using the Superscript-III kit (Invitrogen), followed by real-time PCR amplification using SYBR Green PCR Master Mix (Bio-Rad) and Eppendorf Realplex2S system. The design of claudin-14 primers was described above. The design of pri-miRNA primers was according to Ma et al., (2010). Results were expressed as 2^−ΔCt values with ΔCT=Ctgene−Ctβ-actin.
as §1, with “TALH” for “TAL”, “kidney. (Gong Y,” for “kidney (Hou”, “al. 2012 and Gong Y, et al. 2013)” for “al., 2009).”, “protein,” for “protein (THP),”, “treatment.” for “transfection with NFAT or antagomirs.”
Total RNA including microRNA was extracted using Trizol (Invitrogen). Cellular mRNA was reverse transcribed using the Superscript-III kit (Invitrogen), followed by real-time PCR amplification using SYBR Green PCR Master Mix (Bio-Rad) and Eppendorf Realplex2S system. […] Results were expressed as 2^−ΔCt values with ΔCT=Ctgene−Ctβ-actin. […]
Total RNA including microRNA was extracted using Trizol (Invitrogen). […] Results were expressed as 2^−ΔCt values with ΔCT=Ctgene−Ctβ-actin. […]

[2] = tested on: claudin-14 mRNA; assay: claudin-14 mRNA levels in mouse kidney after systemic treatment (real-time PCR); assay type: in vivo; settings: 1 mg/kg BW−1; 4 hr
Experimental: NPS2143 and cinacalcet (Table 1) were dissolved in vehicle—20% (w/v) (2-Hydroxypropyl)-β-cyclodextrin solution and fed to mice with gavage syringe. Cyclosporin-A (Sandimmune; Table 1) was diluted in 0.9% saline and I.P. injected to animals. Control animals received vehicle injection (13% wiv Cremophor EL and 32.9% ethanol). For dietary Ca^2+ manipulation, animals were fed with the following diets for six consecutive days: basal diet: 0.61% Ca^2+ (TestDiet #5755); low Ca^2+ diet: 0 Ca^++ (TestDiet #5855); high Ca^2+ diet: 5% Ca^2+ (TestDiet #5AVB). All animals had free access to water and were housed under a 12 hr light cycle. Blood samples were taken by cardiac puncture rapidly after initiation of terminal anesthesia and centrifuged at 4° C. for 10 min. Kidney were dissected out and immediately frozen at −80° C.
as §2
SAHA and TsA were dissolved in 5% (w/v) ethanol/0.9% saline solution and fed to mice with gavage syringe. Furosemide was dissolved in 50% (w/v) DMSO/0.9% saline solution and I.P. injected to animals. All animals had free access to water and were housed under a 12 hr light cycle. Blood samples were taken by cardiac puncture rapidly after initiation of terminal anesthesia and centrifuged at 4° C. for 10 min. Kidney were dissected out and immediately frozen at −80° C.
Total RNA including microRNA was extracted using Trizol (Invitrogen). Cellular mRNA was reverse transcribed using the Superscript-III kit (Invitrogen), followed by real-time PCR amplification using SYBR Green PCR Master Mix (Bio-Rad) and Eppendorf Realplex2S system. The design of claudin-14 primers was described before by Gong et al., 2012. The design of pri-miRNA primers and ChIP primers was according to Gong et al., 2013. Results were expressed as 2^−ΔCt values with ΔCT=Ctgene−Ctβ-actin. […]
NPS2143 and cinacalcet (Table 9) were dissolved in vehicle −20% (w/v) (2-Hydroxypropyl)-β-cyclodextrin solution and fed to mice with gavage syringe. Cyclosporin-A (Sandimmune; Table 9) was diluted in 0.9% saline and I.P. injected to animals. Control animals received CNI vehicle injection (13% wiv Cremophor EL and 32.9% ethanol). FK506 was dissolved in CNI vehicle, diluted in 0.9% saline and I.P. injected to animals. For dietary Ca^+ manipulation, animals were fed with the following diets for six consecutive days: basal diet: 0.610% Ca^++ (TestDiet #5755); low Ca^++ diet: 0 Ca^++ (TestDiet #5855); high Ca^++ diet: 5% Ca^+ (TestDiet #5AVB). All animals had free access to water and were housed under a 12 hr light cycle. Blood samples were taken by cardiac puncture rapidly after initiation of terminal anesthesia and centrifuged at 4° C. for 10 min. Kidney were dissected out and immediately frozen at −80° C.
Total RNA including microRNA was extracted using Trizol (Invitrogen). Cellular mRNA was reverse transcribed using the Superscript-III kit (Invitrogen), followed by real-time PCR amplification using SYBR Green PCR Master Mix (Bio-Rad) and Eppendorf Realplex2S system. The design of claudin-14 primers was described before by Gong. Y., et al., 2012. The design of pri-miRNA primers was according to Ma. L., et al., 2010. Results were expressed as 2^−ΔCt values with ΔCT=Ctgene−Ctβ-actin.

[3] = 24 hr urinalysis in metabolic cages, plasma and urine electrolytes; assay type: in vivo, mouse
Experimental: Age (9-10 weeks old) and sex (male) matched wild-type and CLDN14 KO mice were housed individually in metabolic cages (Harvard Apparatus) with free access to water and food for 24 hr. Urine was collected under mineral oil. The plasma and urine Ca^++ and Mg^2+ levels were determined with atomic flame absorption spectrophotometer (PerkinElmer). The plasma (P) and urine (U) electrolyte levels were determined with the Roche Cobas clinical analyzer (Roche Diagnostics). […] The fractional excretion of electrolytes was calculated using the following equation: FEion=V×Uion/(GFR×Pion), where GFR was calculated according to the clearance rate of creatinine (GFR=V×Ucreatinine/Pcreatinine).
Mice were housed individually in metabolic cages (Harvard Apparatus) with free access to water and food for 24 hr. Urine was collected under mineral oil. The plasma and urine Ca^++ and Mg^++ levels were determined with atomic flame absorption spectrophotometer (PerkinElmer). The creatinine levels were measured with an enzymatic method that was independent of plasma chromogens.

[4] = target: T1, human CLDN16 (AF152101) (human, UniProt Q9Y5I7 1-235); assay: cell-based or functional assay
T1 sequence (looked up): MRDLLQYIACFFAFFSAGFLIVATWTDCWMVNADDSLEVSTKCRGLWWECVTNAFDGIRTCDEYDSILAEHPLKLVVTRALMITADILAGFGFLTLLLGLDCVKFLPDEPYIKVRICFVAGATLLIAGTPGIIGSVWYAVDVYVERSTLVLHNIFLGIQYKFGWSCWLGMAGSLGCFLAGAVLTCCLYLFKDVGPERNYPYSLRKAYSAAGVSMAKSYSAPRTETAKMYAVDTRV

[5] = tested on: CLDN14; assay: CLDN14 expression in cultured MKTAL cells; assay type: cell-based, mouse; settings: 1 nM, 10 nM and 100 nM
[6] = WT pre-treated with furosemide 40 mg/kg BW−1 per day, Veh + Furo = furosemide alone

Q: For `CC(/C=C/C(=O)NO)=C\[C@@H](C)C(=O)c1ccc(N(C)C)cc1` [TsA, Trichostatin A], which “CLDN14 mRNA levels, reduction” value [1] is on record?
A: 64%

Q: What about the “CLDN14 mRNA levels in the kidney, decrease” value [2] of the same molecule?
A: 71%

Q: And the “effects on renal Ca++ and Mg++ metabolism (compared with SAHA)” value ([3]; 1 mg/kg BW−1 per day)?
A: exerted similar effects

Q: Which ECa [3, 6] does the source give for `NS(=O)(=O)c1cc(C(=O)O)c(NCc2ccco2)cc1Cl` [Furo, Furosemide] here?
A: 2.84 ± 0.78 ug/24 hr · g

Q: What about the EMg [3, 6] of the same molecule?
A: 13.24 ± 3.13 ug/24 hr · g

Q: What about the FECa [3, 6] of the same molecule?
A: 1.89 ± 0.67 %

Q: What about the FEMg [3, 6] of the same molecule?
A: 32.83 ± 1.30 %

Q: And the PCa [3, 6]?
A: 10.61 ± 0.43 mg/dL

Q: What about the PMg [3, 6] of the same molecule?
A: 2.33 ± 0.11 mg/dL

B1: mouse CLDN14 (AF314089) (other, UniProt Q9Z0S3 1-239, looked up)
chain: MASTAVQLLGFLLSFLGMVGTLITTILPHWRRTAHVGTNILTAVSYLKGLWMECVWHSTGIYQCQIYRSLLALPRDLQAARALMVISCLLSGMACACAVVGMKCTRCAKGTPAKTTFAVLGGALFLLAGLLCMVAVSWTTNDVVQNFYNPLLPSGMKFEIGQALYLGFISSSLSLIGGTLLCLSCQDEAPYRPYPPQSRAGATTTATAPAYRPPAAYKDNRAPSVTSAAHSGYRLNDYV
Q: For B1, which “fold decrease of absolute Na+ permeability, CLDN14+16+19 versus CLDN16+19” value [4] is on record?
A: 2.43 fold

Q: What about the “fold reduction of PNa by CLDN14 in CLDN16 cell background” value [4] of the same molecule?
A: 2.03 fold

B2: PTH: human recombinant PTH (1-84; Sigma) (protein, UniProt P01270 32-115, looked up)
Parathyroid hormone: SVSEIQLMHNLGKHLNSMERVEWLRKKLQDVHNFVALGAPLAPRDAGSQRPRKKEDNVLVESHEKSLGEADKADVNVLTKAKSQ
modifications: Parathyroid hormone
Q: With B2 as the molecule, how does the CLDN14 gene expression [5] read?
A: no significant effect
